# Patent US5349127A, “Expression of herbicide metabolizing cytochromes P450” (priority 1992, dated 1994)
# What was measured:
# S. lividans pCAO200 = assay: Sulfonylurea metabolism by washed cell suspension (Examples 6-9); format: in vitro ADME, Streptomyces lividans; conditions: substrate 10006
# Description: (§1) Herbicides and their metabolites are measured by HPLC as described by Romesser et al., BBRC 140: 650-659 (1986), herein incorporated by reference, except that 0.1% H3 PO4 is used in both solvents. Chromatographic identity and quantitation of the herbicides and their resulting metabolites is determined by comparing them chromatographically with authentic standard compounds. Identity of the resulting metabolites is also confirmed by UV spectroscopy. […]
# (§2) S. lividans transformed respectively with pCAO200SU1-FeS-B#9, pCAO200SU#112and pCAO200 were cultured for 36 hours in 400 ml of YEME broth at 30° C. S. griseolus ATCC 11796 was similarly cultured in 400 ml of sporulation broth. Six hours before harvesting the cells, 150 ml of fresh YEME broth was added to the S. lividans cells, and the S. griseolus cells were split into two 200 ml cultures with 100 ml of fresh sporulation broth added to each. 10001 (36 mg) was added to one of the two S. griseolus cultures to induce cytochrome P450SU1. The cells were prepared as described above in Example 5 and the concentrations of the sulfonylurea compound 10006 and its metabolites 10007, 10008 or 10009 were determined.
# [1] = test system: S. lividans pCAO200SU1#12; assay: as above; format: in vitro ADME, Streptomyces lividans; conditions: substrate 10006
# Description: as §1, §2
# [2] = test system: S. lividans pCAO200SU1-FeS-B#9; assay: as above; format: in vitro ADME, Streptomyces lividans; conditions: substrate 10006
# Description: Herbicides and their metabolites are measured by HPLC as described by Romesser et al., BBRC 140: 650-659 (1986), herein incorporated by reference, except that 0.1% H3 PO4 is used in both solvents. Chromatographic identity and quantitation of the herbicides and their resulting metabolites is determined by comparing them chromatographically with authentic standard compounds. Identity of the resulting metabolites is also confirmed by UV spectroscopy.
# A 100 ml culture of S. griseolus ATCC 11796 in sporulation broth and a 50 ml culture of S. lividans transformed with pCAO400 in YEME broth were prepared and incubated for 24 hours as described. At that time, the S. griseolus culture was split into two 50 ml aliquots into two separate flasks and 25 ml of fresh sporulation broth was added to each and 9 mg of […] was added to one of these cultures to induce cytochrome P450SU1 expression. Fresh YEME broth (25 ml) was added to the S. lividans culture. After an additional 6 hours growth at 30° C., the cells in each culture were harvested as described above, washed twice with MOPS (50 mM, pH 7.2) and recentrifuged. The cell pellets were resuspended in four cell volumes of MOPS (50 mM, pH 7.2) containing 0.2% glucose and about 100 μg/ml of 10004. These cell suspensions were incubated at 30° C. with shaking and aliqouts were taken at 2 and 5.5 hours. The supernatant of each aliquot was analyzed by HPLC and the concentrations of the sulfonylurea compound 10004 and its metabolite 10005 were determined.
# as §2, with “The cells were prepared as described above in Example 5 and the concentrations of the sulfonylurea compound 10006 and its metabolites 10007, 10008 or 10009 were determined.” left out
# [3] = test system: Arabidopsis thaliana seedlings; assay: Seed germination assay of transgenic Arabidopsis (Example 26); format: in vivo; conditions: Kanamycin 50 mg/l
# Description: T2 seed was harvested from selected putative transformants and sown on GM medium containing 50 mg/l kanamycin and that containing 5 ppb 10015. Plates were sealed with filter tape, cold treated for 2 or more days at 4° C., and then incubated for 10 to 20 days at 23° C. under constant illumination as described above. Seedlings were scored as resistant (green, true leaves develop) and sensitive (no true leaves develop). […] The percent of resistant seedlings is inversely proportional with the two selections. Kanamycin is a positive selection for those seedlings that carry the foreign DNA.
# Selected T2 seedlings that were kanamycin resistant were transplanted to soil and were grown to maturity at 21° C. daytime (14 hours) 18° C. nighttime (10 hours) at 65-80% relative humidity. T3 seed was collected, sterilized, and germinated on GM medium containing 50 mg/l kanamycin and that containing 5 ppb 10015. Plates were sealed with filter tape, cold treated for 2 or more days at 4° C., and then incubated for 10 to 20 days at 23° C. under constant illumination as described above. Two of the six plants produced seed that was 100% resistant to kanamycin and 100% sensitive to 10015; they are homozygous for the inserted DNA. The other four parents are heterozygous and show an inverse proportion of kanamycin and 10015 resistant seedlings. […] Therefore, seedlings expressing the P450SU1 gene can be negatively selected.
# Germination assays of homozygous seed on various concentrations of 10015 were performed to assay the relative sensitivity to 10015 produced by the three different promoters and between independent transformants. Seed was sterilized, sown on GM medium with 0, 0.5, 1, 2, 5, 10 and 20 ppb 10015, incubated, and scored as described above. In addition, seedlings are rated on a scale of one to three for the amount of growth.
# Over 500 seed that are homozygous for the P450SU1 coding region were sown on the same plates. The plates were sealed, cold-treated, and incubated as previously described. […] Wild type seedlings were unaffected by the dying transformed seedlings. In addition, when greater than 10,000 seed of a homozygous Cab-SU111 plant was sown on GM medium with 10 ppb 10015, then cold-treated and incubated as described above, eighteen seedlings were resistant to 10015 and were unaffected by neighboring seedlings.
# [4] = test system: transformed tobacco seedlings; assay: Kanamycin resistance of progeny of transformed tobacco (Example 22); format: in vivo, Nicotiana tabacum
# Description: Growth medium was prepared from Murishige minimal organics medium (Gibco Laboratories, Grand Island, N.Y.), 8 g/l agar, supplemented with T vitamins (50 ppb biotin, 0.5 ppm pyridoxine HCl, 0.5 ppm thiamine HCl, 5 ppm nicotinic acid, 0.5 ppm folic acid, 2 ppm glycine, 100 ppm myo-inositol), sterilized and placed into sterile PlantCon plant tissue culture containers (Flow Laboratories, McLean, Va.). Tobacco seed obtained from the self-pollination of the primary transformants was surface sterilized by a treatment of not more than 30 min in 20% chlorine bleach, 0.1% sodium dodecyl sulfate, followed by rinsing in distilled water, and placed on the surface of the medium in the sterile containers. Following this treatment, the seed was allowed to germinate and grow under illumination (100 microeinsteins·m^-2 ·s^-1), at 22° C.
# The number of loci where t-DNA was incorporated into the genome of the tobacco was determined by segregation analysis of kanamycin resistance in the next generation of progeny. Seed from the self pollination of the primary transformants was grown as described above on medium supplemented with 200 ppm kanamycin sulfate (Sigma). After 21 days, resistant (transformed) plants were unaffected compared to control plants, whereas sensitive plants were smaller, partially chlorotic, and poorly rooted. Determination of the number of genetic loci of the primary transformants was based on the segregation of the kanamycin resistance trait.
# Copy number determination is from kanamycin sensitive segregation analysis of about 100 seed.
structure (smiles),measurement,setting,value
"COC(=O)c1ccccc1S(=O)(=O)NC(=O)Nc1nc(C)nc(O)n1 [compound 10007, N-[(4-hydroxy-6-methyl-1,3,5-triazinyl)aminocarbonyl]-2-methoxycarbonylbenzenesulfonamide]",concentration in supernatant,S. lividans pCAO200; 2 h,4 µM
same,concentration in supernatant,S. lividans pCAO200; 4 h,1 µM
same,concentration in supernatant,S. lividans pCAO200; 6 h,1 µM
same,concentration in supernatant,[1]; 2 h,2 µM
same,concentration in supernatant,[1]; 4 h,2 µM
same,concentration in supernatant,[1]; 6 h,2 µM
same,concentration in supernatant,[2]; 2 h,12 µM
same,concentration in supernatant,[2]; 4 h,21 µM
same,concentration in supernatant,[2]; 6 h,30 µM
"COC(=O)c1ccccc1S(=O)(=O)NC(=O)Nc1nc(CO)nc(OC)n1 [compound 10009, N-[(4-methoxy-6-hydroxymethyl-1,3,5-triazin-yl)aminocarbony1]-2-methoxycarbonylbenzenesulfonamide]",concentration in supernatant,S. lividans pCAO200; 2 h,0 µM
same,concentration in supernatant,S. lividans pCAO200; 4 h,0 µM
same,concentration in supernatant,S. lividans pCAO200; 6 h,0 µM
same,concentration in supernatant,[1]; 2 h,0 µM
same,concentration in supernatant,[1]; 4 h,1 µM
same,concentration in supernatant,[1]; 6 h,1 µM
same,concentration in supernatant,[2]; 2 h,15 µM
same,concentration in supernatant,[2]; 4 h,33 µM
same,concentration in supernatant,[2]; 6 h,49 µM
"NC[C@H]1O[C@H](O[C@H]2[C@H](O)[C@@H](O[C@H]3O[C@H](CO)[C@@H](O)[C@H](N)[C@H]3O)[C@H](N)C[C@@H]2N)[C@H](O)[C@@H](O)[C@@H]1O [Kanamycin, reference compound]",#R number of resistant seedlings,"[3]; T2 seed ID 12-1, pCab-SU111",11
same,#S number of sensitive seedlings,"[3]; T2 seed ID 12-1, pCab-SU111",6
same,% R percent of seedlings which are resistant,"[3]; T2 seed ID 12-1, pCab-SU111",65%
same,#R number of resistant seedlings,"[3]; T2 seed ID 12-2, pCab-SU111",0
same,#S number of sensitive seedlings,"[3]; T2 seed ID 12-2, pCab-SU111",12
same,% R percent of seedlings which are resistant,"[3]; T2 seed ID 12-2, pCab-SU111",0%
same,#R number of resistant seedlings,"[3]; T2 seed ID 12-4, pCab-SU111",13
same,#S number of sensitive seedlings,"[3]; T2 seed ID 12-4, pCab-SU111",18
same,% R percent of seedlings which are resistant,"[3]; T2 seed ID 12-4, pCab-SU111",42%
same,#R number of resistant seedlings,"[3]; T2 seed ID 12-5, pCab-SU111",0
same,#S number of sensitive seedlings,"[3]; T2 seed ID 12-5, pCab-SU111",20
same,% R percent of seedlings which are resistant,"[3]; T2 seed ID 12-5, pCab-SU111",0%
same,#R number of resistant seedlings,"[3]; T2 seed ID 12-6, pCab-SU111",15
same,#S number of sensitive seedlings,"[3]; T2 seed ID 12-6, pCab-SU111",9
same,% R percent of seedlings which are resistant,"[3]; T2 seed ID 12-6, pCab-SU111",62%
same,#R number of resistant seedlings,"[3]; T2 seed ID 12-7, pCab-SU111",21
same,#S number of sensitive seedlings,"[3]; T2 seed ID 12-7, pCab-SU111",7
same,% R percent of seedlings which are resistant,"[3]; T2 seed ID 12-7, pCab-SU111",75%
same,#R number of resistant seedlings,"[3]; T2 seed ID 12-8, pCab-SU111",6
same,#S number of sensitive seedlings,"[3]; T2 seed ID 12-8, pCab-SU111",5
same,% R percent of seedlings which are resistant,"[3]; T2 seed ID 12-8, pCab-SU111",55%
same,#R number of resistant seedlings,"[3]; T2 seed ID 12-9, pCab-SU111",13
same,#S number of sensitive seedlings,"[3]; T2 seed ID 12-9, pCab-SU111",3
same,% R percent of seedlings which are resistant,"[3]; T2 seed ID 12-9, pCab-SU111",81%
same,#R number of resistant seedlings,"[3]; T2 seed ID 12-10, pCab-SU111",0
same,#S number of sensitive seedlings,"[3]; T2 seed ID 12-10, pCab-SU111",21
same,% R percent of seedlings which are resistant,"[3]; T2 seed ID 12-10, pCab-SU111",0%
same,#R number of resistant seedlings,"[3]; T2 seed ID 12-11, pCab-SU111",0
same,#S number of sensitive seedlings,"[3]; T2 seed ID 12-11, pCab-SU111",9
same,% R percent of seedlings which are resistant,"[3]; T2 seed ID 12-11, pCab-SU111",0%
same,#R number of resistant seedlings,"[3]; T3 seed ID 12-1-1, pCab-SU111",184
same,#S number of sensitive seedlings,"[3]; T3 seed ID 12-1-1, pCab-SU111",0
same,% R percent of seedlings which are resistant,"[3]; T3 seed ID 12-1-1, pCab-SU111",100%
same,#R number of resistant seedlings,"[3]; T3 seed ID 12-1-2, pCab-SU111",191
same,#S number of sensitive seedlings,"[3]; T3 seed ID 12-1-2, pCab-SU111",0
same,% R percent of seedlings which are resistant,"[3]; T3 seed ID 12-1-2, pCab-SU111",100%
same,#R number of resistant seedlings,"[3]; T3 seed ID 12-1-3, pCab-SU111",136
same,#S number of sensitive seedlings,"[3]; T3 seed ID 12-1-3, pCab-SU111",41
same,% R percent of seedlings which are resistant,"[3]; T3 seed ID 12-1-3, pCab-SU111",77%
same,#R number of resistant seedlings,"[3]; T3 seed ID 12-1-4, pCab-SU111",98
same,#S number of sensitive seedlings,"[3]; T3 seed ID 12-1-4, pCab-SU111",39
same,% R percent of seedlings which are resistant,"[3]; T3 seed ID 12-1-4, pCab-SU111",72%
same,#R number of resistant seedlings,"[3]; T3 seed ID 12-1-5, pCab-SU111",161
same,#S number of sensitive seedlings,"[3]; T3 seed ID 12-1-5, pCab-SU111",56
same,% R percent of seedlings which are resistant,"[3]; T3 seed ID 12-1-5, pCab-SU111",74%
same,#R number of resistant seedlings,"[3]; T3 seed ID 12-1-6, pCab-SU111",254
same,#S number of sensitive seedlings,"[3]; T3 seed ID 12-1-6, pCab-SU111",75
same,% R percent of seedlings which are resistant,"[3]; T3 seed ID 12-1-6, pCab-SU111",77%
same,#R number of resistant seedlings,[3]; WT,0
same,#S number of sensitive seedlings,[3]; WT,77
same,% R percent of seedlings which are resistant,[3]; WT,0%
same,Kanamycin Resistant (plants demonstrating result/total plants),[4]; AGS502 (Control),6/9
same,Kanamycin Resistant (plants demonstrating result/total plants),[4]; SuFe21.2,7/10
same,Kanamycin Resistant (plants demonstrating result/total plants),[4]; SuFe21.5,8/10
same,Kanamycin Resistant (plants demonstrating result/total plants),[4]; SuFe21.6,9/10
same,Kanamycin Resistant (plants demonstrating result/total plants),[4]; SuFe21.7,7/10
same,Kanamycin Resistant (plants demonstrating result/total plants),[4]; SuFe21.8,8/9
same,Kanamycin Resistant (plants demonstrating result/total plants),[4]; SuFell.1,7/9
same,Kanamycin Resistant (plants demonstrating result/total plants),[4]; SuFell.11,7/8
same,Kanamycin Resistant (plants demonstrating result/total plants),[4]; SuFell.3,5/10
same,Kanamycin Resistant (plants demonstrating result/total plants),[4]; SuFell.4,7/10
same,Kanamycin Resistant (plants demonstrating result/total plants),[4]; SuFell.7,9/10
same,Kanamycin Resistant (plants demonstrating result/total plants),[4]; SuFell.8,10/10
